Assay [1] relates to NCI-H292 lung cancer cells. In words: FDA drug screening, complete media vs cholesterol-free media without statin (TABLE 1). In kind it is cell-based, human. The settings on record: for Difference: about 0 neutral.
The subject of assay [2] is NCI-H292 lung cancer cells. In words: FDA drug screening, complete media vs cholesterol-free media with simvastatin (TABLE 2). In kind it is cell-based, human. The settings on record: for Cholesterol-free media + simvastatin (0.04 μM) / Complete Media: NCI-H292 cells; for Difference: >0 enhanced anti-cancer activity, about 0 neutral, <0 antagonist.
Setting [3] is: Complete minus Cholesterol-free, >0 enhanced anti-cancer activity, <0 antagonist.
Setting [4] is: NCI-H292 cells, cholesterol-free media without statin.
Where [5] appears, read: FDA library drug in cholesterol-free media with simvastatin 0.04 μM.
Setting [6] is: FDA library drug in complete media.
Setting [7] is: complete media vs cholesterol-free media + simvastatin (0.04 μM).
The mark [8] stands for this setting: NCI-H292 cells, cholesterol-free media without statin, FDA drug library screen.
Setting [9] is: NCI-H292 cells, complete media, FDA drug library screen.
Where [10] appears, read: complete vs cholesterol-free media, >0 enhanced anti-cancer activity, <0 antagonist.
The mark [11] stands for this setting: drug in cholesterol-free media with simvastatin 0.04 μM.
Setting [12] is: cholesterol-free media with simvastatin 0.04 μM, cell growth value in FDA drug screen.
The mark [13] stands for this setting: complete media, cell growth value in FDA drug screen.
Where [14] appears, read: complete media minus cholesterol-free media + simvastatin.
Where [15] appears, read: FDA drug library screen, cholesterol-free media with simvastatin 0.04 μM.
The mark [16] stands for this setting: FDA drug library screen, complete media.
Setting [17] is: complete vs cholesterol-free media, greater than 0 enhanced anti-cancer activity, below 0 antagonists.

The record followed here is patent US20250144067A1, “PERSONALIZED STARVATION THERAPY FOR CANCER” (Faeth Therapeutics, Inc., priority 2021, published 2025).

Counter-ions that a name gives are not always drawn.

For the molecule `CC(=O)OCC(CCn1cnc2cnc(N)nc21)COC(C)=O` [Famciclovir], the Difference is −0.27 in assay [1] (setting [3]) and −0.44 in assay [2] (setting [7]). In assay [1] (setting [4]), this molecule showed a Cholesterol-free of 1.022. The Complete in assay [1] (NCI-H292 cells, complete media) turned out to be 0.7509. Besides, in assay [2] (setting [5]), the “Cholesterol-free media + simvastatin (0.04 μM)” value amounted to 1.597. In addition, the “Complete Media” value in assay [2] (setting [6]) amounted to 1.161.

The molecule `COc1ccc2cc1Oc1ccc(cc1)C[C@H]1c3cc(c(OC)cc3CCN1C)Oc1c(OC)c(OC)cc3c1[C@H](C2)N(C)CC3` [Tetrandrine] came in with a Cholesterol-free in assay [1] (setting [8]) of 0.9522. Besides, the Complete in assay [1] (setting [9]) turned out to be 1.143. Besides, the Difference in assay [1] (setting [10]) was 0.19; in assay [2] (setting [7]) it was −0.17. For the same molecule, the “Cholesterol-free media + simvastatin (0.04 μM)” value in assay [2] (setting [11]) is listed as 1.133. The “Complete Media” value in assay [2] (drug in complete media) is recorded as 0.9661.

Consider `O=C(NCCO[N+](=O)[O-])c1cccnc1` [Nicorandil], for which, in assay [1] (setting [8]), the Cholesterol-free amounted to 0.8284. The molecule also showed a Complete in assay [1] (setting [9]) of 1.354. Moreover, the Difference in assay [1] (setting [10]) is given as 0.53; in assay [2] (setting [14]), 0.07. Further, the “Cholesterol-free media + simvastatin (0.04 μM)” value in assay [2] (setting [12]) is 0.9809. The “Complete Media” value in assay [2] (setting [13]) stood at 1.055.

As to `O=C(O)Cc1ccccc1Nc1c(Cl)cccc1Cl` [Diclofenac], the Difference in assay [1] (setting [3]) was −0.25; in assay [2] (setting [7]), −0.27. The Cholesterol-free in assay [1] (setting [4]) is reported as 1.167. In addition, in assay [1] (NCI-H292 cells, complete media), the Complete is listed as 0.917. The “Cholesterol-free media + simvastatin (0.04 μM)” value in assay [2] (setting [5]) is reported as 1.089. The “Complete Media” value in assay [2] (setting [6]) is recorded as 0.821.

As to `OCCN1CCN(CCCN2c3ccccc3Sc3ccc(Cl)cc32)CC1` [Perphenazine], the values for the Difference in assay [1] (setting [3]) and in assay [2] (setting [14]) were 0.00 and 0.25, respectively. This molecule also gave a Cholesterol-free in assay [1] (setting [8]) of 0.9098. In assay [1] (setting [9]), this molecule showed a Complete of 0.9103. Moreover, the “Cholesterol-free media + simvastatin (0.04 μM)” value in assay [2] (setting [15]) is recorded as 0.707. Also, in assay [2] (setting [16]), the “Complete Media” value was 0.9554.

In assay [1] (setting [4]), `CCCN1CCCC[C@H]1C(=O)Nc1c(C)cccc1C` [Ropivacaine (hydrochloride monohydrate)] had a Cholesterol-free of 0.9717. This molecule registered a Complete in assay [1] (NCI-H292 cells, complete media) of 0.6061. The figures for the Difference in assay [1] (setting [17]) and in assay [2] (setting [14]) were −0.37 and 0.05, respectively. For the same molecule, the “Cholesterol-free media + simvastatin (0.04 μM)” value in assay [2] (setting [12]) is 1.378. The “Complete Media” value in assay [2] (setting [13]) is given as 1.433.

`Cc1oncc1C(=O)Nc1ccc(C(F)(F)F)cc1` [Leflunomide]: the Difference was −0.16 in assay [1] (Complete minus Cholesterol-free, greater than 0 enhanced anti-cancer activity, below 0 antagonist) and −0.05 in assay [2] (complete media minus cholesterol-free media + simvastatin (0.04 μM)). Further, the Cholesterol-free in assay [1] (NCI-H292 cells, FDA drug library screen, cholesterol-free media without statin) is 0.8738. Also, the Complete in assay [1] (NCI-H292 cells, FDA drug library screen, complete media) was determined as 0.714. The “Cholesterol-free media + simvastatin (0.04 μM)” value in assay [2] (cholesterol-free media with simvastatin 0.04 μM, FDA drug library screen (TABLE 2)) is 0.9978. The “Complete Media” value in assay [2] (complete media, FDA drug library screen (TABLE 2)) was 0.949.

In assay [1] (setting [4]), `O=C(O)P(=O)(O)O` [Foscarnet (sodium)] returned a Cholesterol-free of 1.261. The Complete in assay [1] (NCI-H292 cells, complete media) is 0.9196. The results for the Difference in assay [1] (setting [17]) and in assay [2] (setting [7]) were −0.34 and −0.17, respectively. Further, the “Cholesterol-free media + simvastatin (0.04 μM)” value in assay [2] (setting [11]) is on record as 1.224. Moreover, the “Complete Media” value in assay [2] (drug in complete media) is given as 1.051.

Regarding `Cc1nnc(SCC2=C(C(=O)O)N3C(=O)[C@@H](NC(=O)Cn4cnnn4)[C@H]3SC2)s1` [Cefazolin], the Difference in assay [1] (Complete minus Cholesterol-free, greater than 0 enhanced anti-cancer activity, below 0 antagonists) was −0.54; in assay [2] (setting [7]), −0.13. Also, in assay [1] (NCI-H292 cells in cholesterol-free media without statin), the Cholesterol-free was determined as 1.603. In assay [1] (NCI-H292 cells in complete media), this molecule displayed a Complete of 1.065. For the same molecule, the “Cholesterol-free media + simvastatin (0.04 μM)” value in assay [2] (setting [15]) is 1.197. In assay [2] (setting [16]), the “Complete Media” value is given as 1.069.

In the case of `CCCC(=O)Nc1ncnc2c1ncn2[C@@H]1O[C@@H]2COP(=O)(O)O[C@H]2[C@H]1OC(=O)CCC` [Bucladesine (sodium)], the Difference in assay [1] (setting [3]) is recorded as −0.23; in assay [2] (setting [7]), −0.20. Further, the Cholesterol-free in assay [1] (setting [4]) turned out to be 1.11. In assay [1] (NCI-H292 cells, complete media), the Complete was determined as 0.8768. Besides, in assay [2] (setting [11]), the “Cholesterol-free media + simvastatin (0.04 μM)” value is on record as 1.094. Also, the “Complete Media” value in assay [2] (drug in complete media) was 0.8977.
